In patent US20070161652A1, “Fungicidal mixtures” (BASF Aktiengesellschaft, priority 2004, published 2007):

System: Plasmopara viticola
Test: activity against peronospora of grapevines caused by Plasmopara viticola (protective spray test on potted vines)
Assay type: in vivo, Plasmopara viticola on vines of the cultivar "Riesling"
Conditions: individual active compound, untreated control 92% infection
Description: The active compounds, separately or jointly, were prepared as a stock solution comprising 0.25% by weight of active compound in acetone or DMSO. 1% by weight of the emulsifier Uniperol® EL (wetting agent having emulsifying and dispersant action based on ethoxylated alkylphenols) was added to this solution, and the mixture was diluted with water to the desired concentration.
Use example—activity against peronospora of grapevines caused by Plasmopara viticola Leaves of potted vines of the cultivar “Riesling” were sprayed to runoff point with an aqueous suspension having the concentration of active compound stated below. The next day, the undersides of the leaves were inoculated with an aqueous zoospore suspension of Plasmopara viticola. The grapevines were then initially placed in a water-vapor-saturated chamber at 24° C. for 48 hours and then in a greenhouse at 20-30° C. for 5 days. After this period of time, the plants were again placed in a humid chamber for 16 hours to promote sporangiophore eruption. The extent of the development of the disease on the undersides of the leaves was then determined visually.
The visually determined percentages of infected leaf areas were converted into efficacies in % of the untreated control:
The efficacy (E) is calculated as follows using Abbot's formula: E=(1−[…] )·100 α corresponds to the fungicidal infection of the treated plants in % and β corresponds to the fungicidal infection of the untreated (control) plants in % An efficacy of 0 means that the infection level of the treated plants corresponds to that of the untreated control plants; an efficacy of 100 means that the treated plants were not infected.
The expected efficacies of mixtures of active compounds were determined using Colby's formula (Colby, S. R. “Calculating synergistic and antagonistic responses of herbicide combinations”, Weeds, 15, 20-22, 1967) and compared with the observed efficacies.
Colby's formula: E=x+y−x·y/100
E expected efficacy, expressed in % of the untreated control, when using the mixture of the active compounds A and B at the concentrations a and b x efficacy, expressed in % of the untreated control, when using the active compound A at the concentration a y efficacy, expressed in % of the untreated control, when using the active compound B at the concentration b

| Structure (SMILES) | Efficacy in % of the untreated control (4 ppm in the spray liquor) [%] | Efficacy in % of the untreated control (16 ppm in the spray liquor) [%] | Efficacy in % of the untreated control (63 ppm in the spray liquor) [%] |
| --- | --- | --- | --- |
| OC(c1ccc(Cl)cc1)(c1cncnc1)c1ccccc1Cl (stereo not shown) [compound II, (4-chlorophenyl)(2-chlorophenyl)pyrimidin-5-ylmethanol] | 2 | 2 | 2 |
| CC1CCN(c2c(-c3c(F)cc(F)cc3F)c(Cl)nc3ncnn23)CC1 [compound I, 5-chloro-7-(4-methylpiperidin-1-yl)-6-(2,4,6-trifluorophenyl)-[1,2,4]triazolo[1,5-a]pyrimidine] |  | 56 |  |
